According to patent publication US11439670B2, “Akkermansia muciniphila EB-AMDK27 strain and use thereof” (ENTEROBIOME INC., priority 2019, dated 2022):
≈ marks a conversion by molar mass, not a printed value.

Experiments:
Format in all cases: cell-based
[1] = system: Akkermansia muciniphila ATCC BAA-835; assay: Utilization of carbohydrates, API50CH kit (type strain)
Experimental: (§1) In order to examine the utilization of carbohydrates by the isolated Akkermansia muciniphila strain of the present invention, the strain was cultured using an API50CH kit (Biomerieux, France), and then whether the strain would grow using each carbohydrate was compared with the type strain (ATCC BAA-835).

[2] = system: Akkermansia muciniphila EB-AMDK27 strain; assay: Utilization of carbohydrates, API50CH kit (isolated strain)
Experimental: as §1

[3] = system: Akkermansia muciniphila EB-AMDK27 strain; assay: Antimicrobial susceptibility, MIC by broth microdilution (CLSI); conditions: EBAMDK27STRAIN, read-out: MIC, Test strain EB-AMDK27
[4] = system: Bacteroides thetiotaomicron ATCC 29741; assay: Antimicrobial susceptibility, MIC by broth microdilution (CLSI), QC strain; set-up: MIC, QC ATCC 29741: unit not given beside the values; conditions: for MIC: Bacteroides, ATCC29741, read-out: MIC, QC ATCC 29741

Q: With N#C[C@H](O[C@@H]1O[C@H](CO[C@@H]2O[C@H](CO)[C@@H](O)[C@H](O)[C@H]2O)[C@@H](O)[C@H](O)[C@H]1O)c1ccccc1 [Amygdaline] as the compound, how does the “growth using each carbohydrate, ATCC BAA-835” value (from here on “growth … ATCC BAA-835”) [1] read?
A: −

Q: And the “growth using each carbohydrate, EB-AMDK27” value (“growth … EB-AMDK27” below) [2]?
A: −

Q: What does the source list for OC[C@H]1O[C@@H](Oc2ccc(O)cc2)[C@H](O)[C@@H](O)[C@@H]1O [Arbutine]?
A: growth using each carbohydrate, ATCC BAA-835 [1]: −; growth using each carbohydrate, EB-AMDK27 [2]: −

Q: How did the MIC [3] turn out when O=C(N[C@H](CO)[C@H](O)c1ccc([N+](=O)[O-])cc1)C(Cl)Cl [CHL, Chloramphenicol] was run?
A: 4 µg/mL (≈ 12.4 µM)

Q: And the MIC [4]?
A: 8 µg/mL (≈ 24.8 µM)

Q: For CCC[C@@H]1C[C@@H](C(=O)N[C@@H]([C@H]2O[C@H](SC)[C@H](O)[C@@H](O)[C@H]2O)[C@H](C)Cl)N(C)C1 [CLI, Clindamycin], which MIC [3] is on record?
A: ≤ 0.125 µg/mL

Q: Which results are given for CO/N=C(\C(=O)N[C@@H]1C(=O)N2C(C(=O)O)=CCS[C@H]12)c1csc(N)n1 [CTZ, Ceftizoxime]?
A: MIC [3]: 2 µg/mL (≈ 5.22 µM); MIC [4]: 16 µg/mL (≈ 41.7 µM)

Q: What does the source list for OC[C@@H](O)C(O)[C@H](O)CO [D-Arabitol]?
A: growth using each carbohydrate, ATCC BAA-835 [1]: −; growth using each carbohydrate, EB-AMDK27 [2]: −

Q: How did the “growth … ATCC BAA-835” value [1] turn out when OC[C@H]1O[C@@H](O[C@H]2[C@H](O)[C@@H](O)[C@H](O)O[C@@H]2CO)[C@H](O)[C@@H](O)[C@@H]1O [D-Cellobiose] was run?
A: −

Q: What about the “growth … EB-AMDK27” value [2] of the same compound?
A: −

Q: With OC[C@H]1O[C@H](O[C@H]2[C@H](O)[C@@H](O)[C@H](O)O[C@@H]2CO)[C@H](O)[C@@H](O)[C@@H]1O [D-Maltose] as the compound, how does the “growth … ATCC BAA-835” value [1] read?
A: −

Q: What about the “growth … EB-AMDK27” value [2] of the same compound?
A: −

Q: OC[C@H]1O[C@@](CO)(O[C@H]2O[C@H](CO)[C@@H](O)[C@H](O)[C@H]2O)[C@@H](O[C@H]2O[C@H](CO)[C@@H](O)[C@H](O)[C@H]2O)[C@@H]1O [D-Melezitose] was tested. Which “growth … ATCC BAA-835” value [1] did it give?
A: −

Q: And the “growth … EB-AMDK27” value [2]?
A: −

Q: Which results are given for OC[C@H]1O[C@H](OCC2O[C@@H](O)[C@H](O)[C@@H](O)[C@@H]2O)[C@H](O)[C@@H](O)[C@H]1O (stereo partly drawn) [D-Melibiose]?
A: growth using each carbohydrate, ATCC BAA-835 [1]: −; growth using each carbohydrate, EB-AMDK27 [2]: −

Q: OC[C@H]1O[C@H](OC[C@H]2O[C@H](O[C@]3(CO)O[C@H](CO)[C@@H](O)[C@@H]3O)[C@H](O)[C@@H](O)[C@@H]2O)[C@H](O)[C@@H](O)[C@H]1O [D-Raffinose] was tested. Which “growth … ATCC BAA-835” value [1] did it give?
A: −

Q: And the “growth … EB-AMDK27” value [2]?
A: −

Q: OC[C@H]1O[C@@](CO)(O[C@H]2O[C@H](CO)[C@@H](O)[C@H](O)[C@H]2O)[C@@H](O)[C@@H]1O [D-Saccharose (sucrose), D-Saccharose] was tested. Which “growth … ATCC BAA-835” value [1] did it give?
A: −

Q: What about the “growth … EB-AMDK27” value [2] of the same compound?
A: −

Q: What does the source list for OC[C@H]1O[C@H](O[C@H]2O[C@H](CO)[C@@H](O)[C@H](O)[C@H]2O)[C@H](O)[C@@H](O)[C@@H]1O [D-Trehalose]?
A: growth using each carbohydrate, ATCC BAA-835 [1]: −; growth using each carbohydrate, EB-AMDK27 [2]: −

Q: Which “growth … ATCC BAA-835” value [1] does the source give for OC[C@@H](O)[C@H](O)[C@H](O)[C@@H](O)CO [Dulcitol] here?
A: −

Q: And the “growth … EB-AMDK27” value [2]?
A: −

Q: O=c1ccc2cc(O[C@@H]3O[C@H](CO)[C@@H](O)[C@H](O)[C@H]3O)c(O)cc2o1 [Esculine] was tested. Which “growth … ATCC BAA-835” value [1] did it give?
A: −

Q: And the “growth … EB-AMDK27” value [2]?
A: −

Q: What does the source list for CCN1C[C@]2(COC(=O)c3ccccc3N)CC[C@H](OC)[C@]34C5C[C@@H]6[C@@H](OC)C[C@@](O)(C5[C@H]6OC)[C@@](O)(C13)[C@@H](OC)C24 (some centres unmarked) [Inuline]?
A: growth using each carbohydrate, ATCC BAA-835 [1]: −; growth using each carbohydrate, EB-AMDK27 [2]: −

Q: Which results are given for OC[C@H](O)C(O)[C@@H](O)CO [L-Arabitol]?
A: growth using each carbohydrate, ATCC BAA-835 [1]: −; growth using each carbohydrate, EB-AMDK27 [2]: −

Q: Which MIC [3] does the source give for C[C@@H](O)[C@H]1C(=O)N2C(C(=O)O)=C(S[C@@H]3CN[C@H](C(=O)N(C)C)C3)[C@H](C)[C@H]12 [MEM, Meropenem] here?
A: 0.5 µg/mL (≈ 1.3 µM)

Q: And the MIC [4]?
A: 0.5 µg/mL (≈ 1.3 µM)

Q: With Cc1ncc([N+](=O)[O-])n1CCO [MTZ, Metronidazole] as the compound, how does the MIC [3] read?
A: 0.25 µg/mL (≈ 1.46 µM)

Q: And the MIC [4]?
A: 2 µg/mL (≈ 11.7 µM)

Q: Which MIC [3] does the source give for COc1c(N2C[C@@H]3CCCN[C@@H]3C2)c(F)cc2c(=O)c(C(=O)O)cn(C3CC3)c12 [MXF, Moxifloxacin] here?
A: > 32 µg/mL

Q: What about the MIC [4] of the same compound?
A: 8 µg/mL (≈ 19.9 µM)

Q: What does the source list for CO[C@H]1O[C@H](CO)[C@@H](O)[C@H](O)[C@H]1O [Methyl-α D-glucopyranoside]?
A: growth using each carbohydrate, ATCC BAA-835 [1]: −; growth using each carbohydrate, EB-AMDK27 [2]: −

Q: How did the “growth … ATCC BAA-835” value [1] turn out when CO[C@H]1O[C@H](CO)[C@@H](O)[C@H](O)[C@@H]1O [Methyl-α D-mannopyranoside] was run?
A: −

Q: And the “growth … EB-AMDK27” value [2]?
A: −

Q: With O=C([O-])C(=O)C(O)C(O)C(O)CO.[K+] (centres unmarked) [Potassium 2-Ketogluconate] as the compound, how does the “growth … ATCC BAA-835” value [1] read?
A: −

Q: What about the “growth … EB-AMDK27” value [2] of the same compound?
A: −

Q: OCc1ccccc1O[C@@H]1O[C@H](CO)[C@@H](O)[C@H](O)[C@H]1O [Salicine] was tested. Which “growth … ATCC BAA-835” value [1] did it give?
A: −

Q: What about the “growth … EB-AMDK27” value [2] of the same compound?
A: −

Q: What does the source list for CO[C@H]1OC[C@@H](O)[C@H](O)[C@H]1O [α-Methyl-xyloside]?
A: growth using each carbohydrate, ATCC BAA-835 [1]: −; growth using each carbohydrate, EB-AMDK27 [2]: −

Q: With Amidon [Amidon (starch)] as the compound, how does the “growth … ATCC BAA-835” value [1] read?
A: −

Q: And the “growth … EB-AMDK27” value [2]?
A: −

Q: What does the source list for D-Turanose?
A: growth using each carbohydrate, ATCC BAA-835 [1]: −; growth using each carbohydrate, EB-AMDK27 [2]: −

Q: What does the source list for Glycogene?
A: growth using each carbohydrate, ATCC BAA-835 [1]: −; growth using each carbohydrate, EB-AMDK27 [2]: −

Q: With Piperacillin-Tazobactam [PTZ] as the compound, how does the “MIC, QC ATCC 29741” value ([4]; broth microdilution) read?
A: 8/4
